These results are taken from US20210255168A1, “A METHOD OF PRECISION CANCER THERAPY” (KING FAISAL SPECIALIST HOSPITAL & RESEARCH CENTRE, priority 2018, published 2021).

In assay [1] the test system is TNF-α-ARE luciferase reporter in MDA-MB-231 cells. The assay is described as follows: Post-transcriptional ARE luciferase reporter assay (kinase inhibitor library screen). The assay is classed as cell-based. The settings on record: 0.5, 2 and 5 μM, ARE and non-ARE reporters.
For assay [2] the test system is unchanged. The description is as above. The assay is classed as cell-based. The note with it: for reduction of ARE-reporter activity (in words): PK inhibitor library. The text has this:
Reporters were designed to be driven by the ribosomal protein subunit 30 (RPS30) promoter. The promoter was amplified using PCR with primers specific to the flanking region of the RPS30 promoter sequence. The gene structure of RPS30 was obtained from the Ribosomal Protein Database (http://ribosome.med.miyazaki-u.ac.jp). The forward and reverse primers included the restriction sites, EcoR V and SalI sites. Amplified DNA fragments were then resolved in 1.2%-1.5% agarose gel and the amplicon bands were excised, purified and cloned into the promoterless plasmid. TNF-α 3′-UTR and TNF-α ARE were used to study the role of AU-rich elements in the action of PKs inhibitors. The AU-rich sequence that comprised 250 bases from TNF-α 3′UTR (1200-1450 bp, NM_00059) was amplified by PCR using the forward primer 5′-[…]-3′ (SEQ ID NO:1) and the reverse primer 5′-[…]-3′ (SEQ ID NO:2). The TNF-α-ARE sequence was made by annealing two synthetic complementary oligonucleotides of 70 bases that correspond to TNF-α ARE. The control reporter was constructed to have the basic structure of post-transcriptional reporter except 3′UTR which lack the AU-rich element sequence like this of bovine growth hormone. Any ARE reiterations or variations can be used, with minimal sequence is AUUUA, preferably, WW(AUUUA)WW, where W=A or U. They can be also repeated as an overall, e.g., AUUUAUUA, anywhere from 0 to 10 repeats as example.
Selleckchem Kinase Inhibitor Library that includes a selection of 378 pharmacologically active inhibitors of a number of protein kinases was purchased from Selleckchem. (Houston, Tex., USA). This library is a collection of 378 kinase inhibitors some of which have been approved by the FDA. Each compound is provided as a pre-dissolved 10 mM dimethyl sulfoxide (DMSO) solution as a 96 well format tube (100 μL). The compounds were diluted by OPTI-MEM (Thermo Fisher Scientific, Waltham, Mass., USA) to a final concentration of 5 μM.
Post-transcriptional and control reporter constructs were transfected to MDA-MB-231 cells separately that were seeded in 96-well microplates at a density of 4×10^4 cells/well and incubated overnight. Using lipofectamine 2000 protocol (Invitrogen, Carlsbad, Calif., USA), the cells were transfected with 10 ng of either RPS30-luciferase-control 3′UTR or RPS30-luciferase-ARE 3′UTR reporter plasmids. After 24 h, the cells were treated with each member of protein kinase inhibitors kit for 24 h. Then, luciferase reaction was performed as prescribed by manufacture's protocol (Nano-Glo Luciferase, Promega, Madison, Wis., USA)/well. After 15 minutes, the reporters' activities were measured through the measurement of the chemiluminescence (FIG. 8) after treatment using a Zenith 3100 (Anthos Labtec, Eugendorf, Austria).
Data are presented as means±standard error of the mean (SEM). Two-sample Student's t-test was used to determine the differences between two data sets. One-way analysis of variance (ANOVA) was used to compare three or more data columns. Two-way analysis of variance was used to analyze two groups of data, each having two data columns. Analysis was performed using GraphPad Prism version 6.00 for Windows, (GraphPad Software, La Jolla Calif., USA). For high throughput screening (HTS) hit selection (protein kinase inhibitors), strictly standardized mean difference (SSMD) test was used. This statistical test measures the size of effect of each member in a group relative to the other members. It is the mean of each member divided by the standard deviation of the difference between two random values from different groups. Based on the value of SSMD, the effect of each member of the library was classified as strong (β≥5), moderate (1≤β<5), and weak (β<1). In this study, only drug with SSMD score more than or equal to 5 or less than or equal to −5, i.e. strong β, where selected in the primary screening. […]

For assay [3], the system named is MDA-MB-231, MCF7, and SKBR3 cell lines. The assay is described as follows: mRNA expression in breast cancer cell lines. The assay is classed as cell-based. The settings on record: MCF7, MDA-MB-231 and SKBR3; most of the cancer cell lines. As for the experimental part:
Cells were cultured in six-well plates and either treated with DMSO or drugs for 24 h. Total RNA was then extracted using Trizol reagent (TRI Reagent, Sigma-Aldrich, St Louis, Mo.). The cells were lysed directly on the culture dish by adding 1 ml of the TRI Reagent per 10 cm^2 surface area. Reverse transcription for preparation of cDNA was performed using 3 μg of total RNA, 150 ng random primers, 0.1 M dithiothreitol (DTT), 10 mM deoxynucleotide triphosphate (dNTP) and 200 U of SuperScript II (Invitrogen, Foster City, Calif.). The quantitative RT-QPCR was performed in multiplex in the Chroma 4 DNA Engine cycler (BioRad, Hercules, Calif., USA) using FAM-labelled TaqMan probes (Applied Biosystems, Foster City, Calif., USA) for TTP (ZFP36), HuR (ELAVL1), uPA (PLAU)-CXCR4, MMP-1, MMP-13, IL-8, PLK-1 while a VIC-labelled glyceraldehyde-3-phosphate dehydrogenase (GAPDH) probe was used as the endogenous control. Samples were amplified in triplicate and quantification of relative expression was performed using the estimation of quantitation cycle (Cq) method.
PLK1 kinase, as an example of kinases involved in cancer, is over-expressed in breast cancer cell lines, including MCF7, MDA-MB-231 and SKBR3 when compared to the normal-like MCF10A (FIG. 5A). Many kinases are either over-expressed or constitutively active or hyperactive in cancer states when compared to normal cells. As example of inhibitors that are found in the precision cancer therapy screen, Volasertib and Regorafenib (VEGFR kinase inhibitor) led to reduction in the level of ARE-containing mRNA, uPA in most of the cancer cell lines. (FIG. 5B).
The present inventors further disclose that the effect of PLK-1 inhibition is consistent among different types of breast cancer including triple-negative, […], and ER-PR negative breast cancers, as shown through the actions induced by PLK-1 inhibitor volasertib on MDA-MB-231, MCF7, and SKBR3 cell lines, namely increasing the expression of TTP, decreasing the HuR level, and downregulating the TTP target uPA. […] Accordingly, the present inventor discloses that any protein kinase inhibitor which post-transcriptionally regulates expression of cancer-related genes is suitable for precision cancer therapy. Further disclosed is a method of treatment of cancer comprising administering said protein kinase inhibitor, to a patient in need thereof.

The target in a further assay is PLK-2 (Homo sapiens, UniProt Q9NYY3). The settings on record: cited from earlier work.
The next assay concerns the target PLK-3 (Homo sapiens, UniProt Q9H4B4). The note with it: cited from earlier work.

PLK-3, sequence (Q9H4B4 whole entry, species assumed): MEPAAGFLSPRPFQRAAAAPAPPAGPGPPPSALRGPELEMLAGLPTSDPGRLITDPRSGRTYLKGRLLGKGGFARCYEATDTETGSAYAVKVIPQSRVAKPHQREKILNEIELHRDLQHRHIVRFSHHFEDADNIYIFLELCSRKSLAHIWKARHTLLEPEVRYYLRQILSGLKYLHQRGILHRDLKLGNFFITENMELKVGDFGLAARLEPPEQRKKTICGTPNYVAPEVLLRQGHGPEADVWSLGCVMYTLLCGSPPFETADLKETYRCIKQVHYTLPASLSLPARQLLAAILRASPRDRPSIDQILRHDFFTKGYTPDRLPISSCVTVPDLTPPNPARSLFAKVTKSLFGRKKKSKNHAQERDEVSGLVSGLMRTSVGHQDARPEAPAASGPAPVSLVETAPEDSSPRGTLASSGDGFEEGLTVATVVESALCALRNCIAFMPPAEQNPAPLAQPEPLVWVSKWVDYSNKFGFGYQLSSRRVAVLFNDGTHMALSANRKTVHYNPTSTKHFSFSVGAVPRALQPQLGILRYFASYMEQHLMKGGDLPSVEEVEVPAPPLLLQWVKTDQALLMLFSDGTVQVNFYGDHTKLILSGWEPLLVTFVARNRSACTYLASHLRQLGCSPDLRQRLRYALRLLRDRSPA
PLK-2, sequence (Q9NYY3 whole entry, species assumed): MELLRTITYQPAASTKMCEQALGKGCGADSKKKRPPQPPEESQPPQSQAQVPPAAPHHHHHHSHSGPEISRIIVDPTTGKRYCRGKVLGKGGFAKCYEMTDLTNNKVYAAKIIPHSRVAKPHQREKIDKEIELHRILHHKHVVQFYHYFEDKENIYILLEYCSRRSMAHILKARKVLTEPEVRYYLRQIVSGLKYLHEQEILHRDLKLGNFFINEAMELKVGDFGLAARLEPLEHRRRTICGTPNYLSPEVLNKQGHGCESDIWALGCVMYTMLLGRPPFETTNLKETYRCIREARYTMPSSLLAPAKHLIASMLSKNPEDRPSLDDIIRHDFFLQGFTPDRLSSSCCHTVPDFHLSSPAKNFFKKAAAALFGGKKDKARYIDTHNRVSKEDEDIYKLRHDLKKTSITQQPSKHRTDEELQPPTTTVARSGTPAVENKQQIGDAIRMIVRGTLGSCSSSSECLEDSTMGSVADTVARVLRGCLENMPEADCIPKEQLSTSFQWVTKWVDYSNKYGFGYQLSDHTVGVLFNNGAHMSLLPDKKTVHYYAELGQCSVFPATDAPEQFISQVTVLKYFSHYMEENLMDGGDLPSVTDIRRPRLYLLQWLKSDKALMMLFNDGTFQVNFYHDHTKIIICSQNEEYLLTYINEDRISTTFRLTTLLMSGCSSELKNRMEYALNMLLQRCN

Turning to `Cc1ccc(NC(=O)c2cccc(C(C)(C)C#N)c2)cc1Nc1ccc2ncn(C)c(=O)c2c1` [AZ628], in assay [1], the “ARE-dependent mRNA regulation confirmed in later stages of screening compared to a non-ARE reporter” value was “confirmed to be involved in ARE-dependent mRNA regulation”. On to `CC[C@@H]1C(=O)N(C)c2cnc(Nc3ccc(C(=O)NC4CCN(C)CC4)cc3OC)nc2N1C1CCCC1` [BI 2536], for which the “reduction of TNF-ARE luciferase reporter activity” value in assay [2] (primary screening, 5 μM) is reported as 35%. In addition, the “reduction in percent reporter activity in the secondary screening compared to the control reporter” value in assay [2] (secondary screening, ARE vs non-ARE control reporter) was determined as 16%. For the compound `C[C@@H](Oc1cc(-n2cnc3ccc(CN4CCN(C)CC4)cc32)sc1C(N)=O)c1ccccc1C(F)(F)F` [GSK461364], the “reduction of ARE-reporter activity (in words)” value (from here on “reduction … (in words)”) in assay [2] is “did not reduce”. Same read-out and setting: with `COc1ccc(S(=O)(=O)N(C(C)=O)c2ccccc2/C=C/c2cc[n+]([O-])cc2)cc1` [HMN-214] the entry was “did not reduce”; with `CN1CCN(c2ccc(OC(F)(F)F)c(Nc3ncc4c(n3)-c3c(c(C(N)=O)nn3CCO)CC4)c2)CC1` [NMS-P937], “did not reduce”. For the compound `CNC(=O)c1cc(Oc2ccc(NC(=O)Nc3ccc(Cl)c(C(F)(F)F)c3)c(F)c2)ccn1` [Regorafenib], in assay [3], the “level of ARE-containing mRNA uPA in cancer cell lines” value is listed as “reduction”. Also, in assay [1], the “ARE-dependent mRNA regulation confirmed in later stages of screening compared to a non-ARE reporter” value is “confirmed to be involved in ARE-dependent mRNA regulation”. As to `COc1cc(OC)c(/C=C/S(=O)(=O)Cc2ccc(OC)c(NCC(=O)O)c2)c(OC)c1` [rigosertib], the “reduction … (in words)” value in assay [2] was “did not reduce”. Moreover, the “selectivity (PLK-1) against PLK-2” value on PLK-2 is recorded as “more than 30 fold”. In addition, the “activity on PLK-3” value on PLK-3 is reported as “no activity”.

With Ro3280, the “reduction … (in words)” value in assay [2] is on record as “did not reduce”.
